How the values were obtained:
female SD rats = assay: Urethral baseline pressure (intraurethral pressure) in anesthetized rats after oral administration; type: in vivo; conditions: 10 mg/kg oral, 11-week-old female SD rats, 30 minutes after 8 hours from administration, compared with solvent administration group (Student's t-test), FIG. 1
Description: The compounds of the present invention and a comparative compound were individually orally administered in an amount of 10 mg/kg to 11-week-old female SD rats (test substance-administration groups) and distilled water was orally administered as the control to 11-week-old female SD rats (solvent administration group, n=8). As the comparative compound, 4-piperidyl 2,2-diphenyl-2-propoxyacetate was used (Comparative Example).
Seven and a half hours after administration, each rat was anesthetized by intraperitoneal administration of 1.2 g/kg of urethane. Thereafter, the ureters and the area between the urethra and the bladder were ligated, and a vesical fistula catheter and a catheter for measuring intraurethral pressure were inserted and indwelled in the bladder and the urethra. […] Intravesical pressure and intraurethral pressure were recorded via a polygraph connected with the pressure transducers. […] Physiological saline was injected into the urethra using the micro syringe pump connected to the urethra at 3 mL/hr, and the changes in intraurethral pressure associated with the rhythmic contraction were recorded.
The mean values of the urethral baseline pressure for the solvent administration group and the test substance-administration groups were calculated, and the results were indicated as mean±SE. […]

| Structure (SMILES) | melting point [°C] | urethral baseline pressure (female SD rats) | urethral baseline pressure (female SD rats; listed as Comparative Example) |
| --- | --- | --- | --- |
| Cl.O=C(OC1CCNCC1)C(OCCC(F)(F)F)(c1ccccc1)c1ccccc1 | 152 to 153 |  |  |
| Cl.O=C(COCCC(F)F)OC1CCNCC1 | 130 to 132 |  |  |
| Cl.O=C(OC1CCNCC1)C(OCC(F)F)(c1ccccc1)c1ccccc1 | 172 to 174 |  |  |
| CCCOC(C(=O)OC1CCNCC1)(c1ccccc1)c1ccccc1 [comparative compound, 4-piperidyl 2,2-diphenyl-2-propoxyacetate] |  | little effect | did not have a significant effect |

Further lines, with some results ahead:

| melting point [°C] | Structure (SMILES) | urethral baseline pressure (female SD rats) | urethral baseline pressure (female SD rats; listed as Comparative Example) |
| --- | --- | --- | --- |
| 135 to 136 | Cl.O=C(OC1CCNCC1)C(OCCCF)(c1ccccc1)c1ccccc1 |  |  |
| 128 to 130 | Cl.O=C(OC1CCNCC1)C(OCC(F)(F)C(F)F)(c1ccccc1)c1ccccc1 |  |  |
| 98 to 100 | Cl.O=C(OC1CCNCC1)C(OCC(F)(F)C(F)(F)F)(c1ccccc1)c1ccccc1 |  |  |
